Legend:
Experiment in all cases: DNA Methylation Assay
Settings in all cases: pH 7.5
[1] = biological target: T1, DNA (cytosine-5)-methyltransferase 1 [351-1600] (Homo sapiens, UniProt P26358)
T1 construct: 351-1600
Experimental: (§1) Assays (0.1 ml) were conducted in 96-well black half-area plates in either a Wallac VICTOR2 or Biotek Synergy Neo plate reader at 37 °C in 10 mM Tris, pH 7.5, 100 mM potassium glutamate, 1 mM MgCl2, 1 mM DTT, 0.1 mg/ml BSA, and 5% glycerol. […] Data were fitted using Prism (GraphPad Software, Inc).

[2] = biological target: Orphan methyltransferase M.SssI (Spiroplasma monobiae (strain ATCC 33825 / MQ-1), UniProt P15840)
Experimental: as §1

[3] = biological target: T2, DNA (cytosine-5)-methyltransferase 3A [590-912] (Homo sapiens, UniProt Q9Y6K1)
T2 construct: 590-912
Experimental: as §1

T1 sequence (P26358 351-1600): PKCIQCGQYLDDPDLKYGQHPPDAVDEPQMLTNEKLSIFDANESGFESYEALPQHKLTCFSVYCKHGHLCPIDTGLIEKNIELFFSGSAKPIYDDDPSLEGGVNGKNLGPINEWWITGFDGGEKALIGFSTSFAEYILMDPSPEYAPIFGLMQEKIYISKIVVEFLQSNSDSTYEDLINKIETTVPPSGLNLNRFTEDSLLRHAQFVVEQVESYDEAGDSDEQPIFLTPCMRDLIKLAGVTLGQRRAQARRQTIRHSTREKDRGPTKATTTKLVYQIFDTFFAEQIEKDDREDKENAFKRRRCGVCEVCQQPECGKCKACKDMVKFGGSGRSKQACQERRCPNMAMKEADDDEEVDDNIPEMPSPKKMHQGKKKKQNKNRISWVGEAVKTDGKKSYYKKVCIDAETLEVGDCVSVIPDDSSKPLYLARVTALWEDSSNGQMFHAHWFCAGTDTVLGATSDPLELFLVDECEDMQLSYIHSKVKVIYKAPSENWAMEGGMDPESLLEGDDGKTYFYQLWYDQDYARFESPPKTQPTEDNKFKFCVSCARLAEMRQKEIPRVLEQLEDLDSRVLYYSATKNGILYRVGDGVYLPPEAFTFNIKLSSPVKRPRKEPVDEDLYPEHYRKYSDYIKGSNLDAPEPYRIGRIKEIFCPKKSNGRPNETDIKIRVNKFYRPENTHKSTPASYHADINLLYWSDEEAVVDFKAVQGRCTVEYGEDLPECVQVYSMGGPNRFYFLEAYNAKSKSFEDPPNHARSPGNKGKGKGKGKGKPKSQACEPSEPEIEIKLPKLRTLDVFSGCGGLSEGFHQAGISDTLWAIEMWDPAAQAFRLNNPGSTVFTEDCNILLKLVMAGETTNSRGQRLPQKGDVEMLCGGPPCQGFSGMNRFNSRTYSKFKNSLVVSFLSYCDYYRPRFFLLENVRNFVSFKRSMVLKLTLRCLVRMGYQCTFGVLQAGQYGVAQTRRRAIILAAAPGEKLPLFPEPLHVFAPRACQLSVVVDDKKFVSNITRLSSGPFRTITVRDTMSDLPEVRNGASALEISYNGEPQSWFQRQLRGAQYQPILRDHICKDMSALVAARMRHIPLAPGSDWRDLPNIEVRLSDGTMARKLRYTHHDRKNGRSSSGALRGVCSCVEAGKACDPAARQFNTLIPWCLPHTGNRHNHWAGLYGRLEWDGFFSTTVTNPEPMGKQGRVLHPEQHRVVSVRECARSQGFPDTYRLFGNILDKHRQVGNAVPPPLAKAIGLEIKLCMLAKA
T2 sequence (Q9Y6K1 590-912): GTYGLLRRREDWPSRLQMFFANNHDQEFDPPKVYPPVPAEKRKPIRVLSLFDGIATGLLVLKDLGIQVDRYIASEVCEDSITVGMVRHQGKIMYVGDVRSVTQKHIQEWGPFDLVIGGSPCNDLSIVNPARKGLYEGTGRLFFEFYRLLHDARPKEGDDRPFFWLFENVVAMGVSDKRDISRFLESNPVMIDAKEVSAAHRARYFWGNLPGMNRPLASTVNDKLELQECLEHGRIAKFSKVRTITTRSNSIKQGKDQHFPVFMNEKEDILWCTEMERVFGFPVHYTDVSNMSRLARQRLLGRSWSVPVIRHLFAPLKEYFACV
Orphan methyltransferase M.SssI, sequence (P15840 whole entry): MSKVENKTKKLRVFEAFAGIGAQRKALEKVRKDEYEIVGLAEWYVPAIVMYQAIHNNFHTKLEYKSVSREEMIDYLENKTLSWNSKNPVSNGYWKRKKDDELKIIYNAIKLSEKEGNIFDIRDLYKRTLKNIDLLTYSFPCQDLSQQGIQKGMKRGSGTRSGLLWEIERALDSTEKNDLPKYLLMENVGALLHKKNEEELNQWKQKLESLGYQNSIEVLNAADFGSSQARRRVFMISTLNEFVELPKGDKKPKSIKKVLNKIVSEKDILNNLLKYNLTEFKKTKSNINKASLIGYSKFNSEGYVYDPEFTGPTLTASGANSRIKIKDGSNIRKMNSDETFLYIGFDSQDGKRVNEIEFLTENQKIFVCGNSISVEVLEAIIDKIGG

CC(=O)NCCc1ccc(O)c(-c2c(O)c(O)c3c(c2O)C(=O)c2c(cc(O)c(C(=O)O)c2C(=O)O)C3=O)c1
IC50 [1]: 19.1 µM
IC50 [2]: 53.6 µM
IC50 [3]: 50.5 µM
